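A five-concentration, 48-hour dose response in 96-well plates underlies each endpoint, interpolated linearly between surrounding concentrations. At the GI50, growth is halved.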 Active and inactive are the calls of the source. Cut-off read from the data, not from the text of the source: active = GI50 up to about 1.1 µM and inactive = higher.

Data on 11 compounds can be found in ChEMBL document CHEMBL1201862, “PubChem BioAssay data set” (2004).

Among the test systems are RXF 393; HCT-15; ACHN; K562; EKVX; OVCAR-3; BT-549; NCI-H522; A498; COLO 205; CCRF-CEM; OVCAR-8; HOP-92; SF-295; M14; UO-31; UACC-257; OVCAR-5; SN12C.
Common to all, as to test: growth of human tumour cells (NCI), 48 h

Regarding `CCOC(=O)CCC(NC(=O)c1ccc(Nc2nc3ccccc3n3cccc23)cc1)C(=O)OCC` (centres undefined), the GI50 was 12.2 µM (inactive) in the test with RXF 393; 29.7 µM in the test on HCT-15; 20.6 µM (inactive) in the test with ACHN; 38.5 µM (inactive) in the test with K562; 41.5 µM (inactive) with EKVX; 18.2 µM (inactive) in the test with OVCAR-3. In addition, the GI50 in the test with BT-549 is 23.3 µM (inactive); with NCI-H522, 22.9 µM (inactive); in the test on A498, 70.1 µM (inactive); in the test on COLO 205, 53.8 µM (inactive); with CCRF-CEM it was 54.8 µM (inactive); with OVCAR-8 it was 19.6 µM (inactive). Also, the GI50 in the test with HOP-92 is 32.1 µM (inactive); with SF-295 it was 25.2 µM (inactive); in the test on M14, 51.6 µM (inactive); in the test on UO-31 it was 44.9 µM (inactive); in the test on UACC-257, 26.2 µM (inactive); in the test on OVCAR-5, 45.6 µM (inactive).

For the compound `COc1ccc(/C=C/c2sc3ccccc3[n+]2CCCCI)cc1OC`, the GI50 in the test on RXF 393 is > 10 µM (inactive); with HCT-15, greater than 10 µM; in the test with ACHN, > 10 µM (inactive); in the test with K562, 3.25 µM (inactive); with EKVX it was > 10 µM (inactive); in the test with OVCAR-3 it was 5.47 µM (inactive). In addition, the GI50 is > 10 µM (inactive) in the test on BT-549; 8.87 µM (inactive) in the test with NCI-H522; > 10 µM (inactive) in the test with A498; 3.49 µM (inactive) with CCRF-CEM; > 10 µM (inactive) with SN12C; 4.61 µM (inactive) in the test with OVCAR-8. Further, the GI50 in the test on HOP-92 was 9.53 µM (inactive); with SF-295, > 10 µM (inactive); in the test with M14, > 10 µM (inactive); with UO-31, > 10 µM (inactive); in the test on UACC-257, 5.33 µM (inactive); with OVCAR-5, > 10 µM (inactive).

As to `Cn1c(=O)c2c(nc3sc4ncccc4c(=O)n32)n(C)c1=O`, the GI50 with RXF 393 is > 100 µM (inactive); in the test with HCT-15, greater than 100 µM; in the test with ACHN, > 100 µM (inactive); in the test on EKVX it was > 100 µM (inactive); with OVCAR-3 it was > 100 µM (inactive); with BT-549, > 100 µM (inactive). Besides, the GI50 with A498, in the test with COLO 205, in the test with CCRF-CEM, with SN12C, in the test on OVCAR-8 and with HOP-92 was > 100 µM (inactive) each time. Besides, the GI50 is > 100 µM (inactive) with SF-295; > 100 µM (inactive) in the test with M14; 81.1 µM (inactive) in the test on UO-31; > 100 µM (inactive) in the test on UACC-257; > 100 µM (inactive) in the test on OVCAR-5.

Consider `Cc1ccc(S(=O)(=O)ON2C(=O)c3c(N)c(C#N)c(-c4ccccc4)c(-c4ccccc4)c3C2=O)cc1`, for which the GI50 is 10.4 µM (inactive) in the test with RXF 393; 17.2 µM in the test with HCT-15; 16.4 µM (inactive) in the test on ACHN; 6.41 µM (inactive) with K562; 14.6 µM (inactive) in the test with EKVX; 13.6 µM (inactive) with OVCAR-3. Besides, the GI50 was 13.1 µM (inactive) in the test on BT-549; 15.6 µM (inactive) in the test on NCI-H522; 20 µM (inactive) with A498; 17.3 µM (inactive) in the test on COLO 205; 3.16 µM (inactive) in the test on CCRF-CEM; 18.1 µM (inactive) in the test with SN12C. The GI50 in the test with OVCAR-8 was 17.6 µM (inactive); in the test with HOP-92 it was 21.6 µM (inactive); with SF-295, 20 µM (inactive); in the test on M14, 13.6 µM (inactive); with UACC-257, 18.6 µM (inactive); in the test with OVCAR-5, 18 µM (inactive).

In the case of `COc1ccc2c(O)c(Oc3ccc(Cl)cc3)c(=O)oc2c1`, the GI50 in the test on RXF 393 is 35.3 µM (inactive); in the test on HCT-15, 41.4 µM; in the test on ACHN, 93.3 µM (inactive); in the test with K562 it was > 100 µM (inactive); in the test on EKVX, > 100 µM (inactive); in the test with OVCAR-3, 83.9 µM (inactive). For the same compound, the GI50 is 36.9 µM (inactive) in the test on BT-549; > 100 µM (inactive) in the test on NCI-H522; 38.5 µM (inactive) with A498; > 100 µM (inactive) in the test on CCRF-CEM; > 100 µM (inactive) in the test with SN12C; > 100 µM (inactive) in the test on OVCAR-8. The GI50 with HOP-92 was 34.5 µM (inactive); in the test with SF-295, > 100 µM (inactive); with M14, 88.9 µM (inactive); with UO-31, 27.5 µM (inactive); in the test on UACC-257 it was > 100 µM (inactive); with OVCAR-5, > 100 µM (inactive).

Consider `O=C(O)C(=Cc1ccnc2ccccc12)C(=O)O`, for which the GI50 with RXF 393 is > 100 µM (inactive); in the test on HCT-15, greater than 100 µM; in the test with ACHN, > 100 µM (inactive); in the test with K562 it was > 100 µM (inactive); with EKVX it was > 100 µM (inactive); with OVCAR-3, > 100 µM (inactive). Further, the GI50 with BT-549, in the test on NCI-H522, in the test with A498, in the test on COLO 205, in the test on CCRF-CEM and in the test with SN12C was > 100 µM (inactive) each time. Further, the GI50 in the test with OVCAR-8, in the test with HOP-92, in the test on SF-295, in the test with M14, in the test on UACC-257 and with OVCAR-5 was > 100 µM (inactive) in each case.

Consider `CC(=O)O/C=C1/C[C@H]2[C@@H]3CCC4CC(C(C)=O)CC[C@]4(C)[C@H]3CC[C@]2(C)C1=O` (some centres undefined), for which the GI50 in the test on RXF 393 is > 100 µM (inactive); in the test on HCT-15 it was 14.8 µM; in the test with ACHN it was > 100 µM (inactive); in the test on K562, 36.4 µM (inactive); in the test on EKVX, > 100 µM (inactive); with OVCAR-3, 33.2 µM (inactive). Moreover, the GI50 was > 100 µM (inactive) in the test with BT-549; > 100 µM (inactive) in the test with NCI-H522; > 100 µM (inactive) in the test on A498; > 10 µM (inactive) in the test with COLO 205; 29.1 µM (inactive) in the test on CCRF-CEM; > 100 µM (inactive) in the test with SN12C. Further, the GI50 in the test with HOP-92 was 41 µM (inactive); in the test with SF-295 it was 49.1 µM (inactive); in the test with UO-31, > 100 µM (inactive); in the test with UACC-257 it was > 100 µM (inactive); with OVCAR-5, > 100 µM (inactive).

For `CCOC(=O)CCCc1cc(O)c2c(C)c3[nH]c4ccc(Cl)cc4c3c(C)c2n1`, the GI50 in the test with RXF 393 was 12.7 µM (inactive); in the test on HCT-15 it was 31.5 µM; with ACHN it was 24.3 µM (inactive); in the test with K562, 26.1 µM (inactive); with EKVX, 79.1 µM (inactive); with OVCAR-3 it was 17.7 µM (inactive). The GI50 was 19 µM (inactive) in the test on BT-549; 15.3 µM (inactive) in the test with A498; 41.8 µM (inactive) with COLO 205; 42.5 µM (inactive) in the test on CCRF-CEM; 27.3 µM (inactive) with SN12C; 24.9 µM (inactive) in the test with OVCAR-8. In addition, the GI50 in the test with HOP-92 was 22 µM (inactive); in the test with SF-295 it was 28.8 µM (inactive); in the test on M14, 34.9 µM (inactive); with UO-31 it was 20.1 µM (inactive); with UACC-257, 43.2 µM (inactive); in the test on OVCAR-5 it was 82.6 µM (inactive).

With `NC1=Nc2ncccc2C(=O)NN1`, the GI50 in the test with RXF 393 is > 10 µM (inactive); in the test with HCT-15, greater than 10 µM; with ACHN, > 10 µM (inactive); in the test with K562 it was > 10 µM (inactive); in the test on EKVX it was > 10 µM (inactive); with OVCAR-3, > 10 µM (inactive). The GI50 in the test on BT-549, in the test on A498, in the test with CCRF-CEM, in the test on SN12C, with OVCAR-8 and in the test with HOP-92 was > 10 µM (inactive) throughout. Besides, the GI50 in the test with SF-295, in the test with M14, in the test with UO-31, in the test on UACC-257 and in the test on OVCAR-5 was > 10 µM (inactive) in each case.

Consider `Cn1c(-c2ccccc2)cc(-c2ccsc2)c1-c1ccsc1`, for which the GI50 in the test with RXF 393 was 33.3 µM (inactive); in the test with HCT-15 it was greater than 100 µM; with ACHN, > 100 µM (inactive); in the test with K562, > 100 µM (inactive); in the test on EKVX, > 100 µM (inactive); in the test with OVCAR-3, 34.3 µM (inactive). Besides, the GI50 is > 100 µM (inactive) in the test on BT-549; > 100 µM (inactive) in the test with A498; > 100 µM (inactive) in the test on COLO 205; 50 µM (inactive) in the test on CCRF-CEM; > 100 µM (inactive) in the test with SN12C; > 100 µM (inactive) with OVCAR-8. The GI50 with HOP-92, in the test with SF-295, with M14, in the test with UO-31, in the test on UACC-257 and in the test on OVCAR-5 was > 100 µM (inactive) throughout.

For `CCOc1cc(NC(C)=O)ccc1C(=O)NN1C(=O)C(Oc2ccccc2)C1c1ccccc1` (centres undefined), the GI50 was 70.5 µM (inactive) in the test on RXF 393; greater than 100 µM in the test with HCT-15; 26.5 µM (inactive) in the test with ACHN; 49.5 µM (inactive) in the test with K562; > 100 µM (inactive) in the test with EKVX; > 100 µM (inactive) with OVCAR-3. Moreover, the GI50 in the test on BT-549 was > 100 µM (inactive); in the test with NCI-H522, > 100 µM (inactive); with A498, 45.4 µM (inactive); with COLO 205 it was 71.9 µM (inactive); in the test with CCRF-CEM, 28.6 µM (inactive); in the test with SN12C, > 100 µM (inactive). In addition, the GI50 with OVCAR-8 is > 100 µM (inactive); in the test with HOP-92, > 100 µM (inactive); in the test on SF-295, 57.8 µM (inactive); in the test with UACC-257, > 100 µM (inactive); with OVCAR-5, > 100 µM (inactive).
